Data from US20230374015A1, “INHIBITORS OF FIBROBLAST GROWTH FACTOR RECEPTOR KINASES” (Kinnate Biopharma Inc., priority 2020, published 2023).

Target: FGFR2 (Homo sapiens, UniProt P21802)
Assay: FGFR2 Kinase Protocol - Condition 2 (Reaction Biology HotSpot radiometric kinase assay, no preincubation)
Type: biochemical
Settings: poly[Glu:Tyr] (4:1) 0.2 mg/ml, ATP 100 microM, 2 hr room temperature
Method: Example 2: FGFR2 Kinase Protocol—Condition 2
The Reaction Biology HotSpot assay platform (http://www.reactionbiology.com) was used to measure kinase/inhibitor interactions as described previously (Anastassiadis et al., 2011). In brief, for each reaction, kinase and substrate were mixed in a buffer containing 20 mM HEPES (pH 7.5), 10 mM MgCl2, 1 mM EGTA, 0.02% Brij35, 0.02 mg/mL BSA, 0.1 mM Na3VO4, 2 mM DTT, and 1% DMSO. All compounds were in powder form and freshly solubilized in DMSO for assays. Compounds were then added to each reaction mixture via acoustic dispense using an ECHO 550 nanoliter dispenser. For Human FGFR2 wildtype testing, a peptide substrate, poly[Glu:Tyr] (4:1) was used to promote the reaction at a concentration of 0.2 mg/ml. For Human FGFR2 (V564F) testing, a peptide substrate, poly[Glu:Tyr] (4:1) was used to promote the reaction at a concentration of 0.2 mg/ml. ATP concentration for all assays was maintained at 100 micromolar. Compounds were tested in 10-dose IC50 mode with a 3-fold serial dilution. Compounds were added to plates and ATP was added directly to the wells. ATP (Sigma-Aldrich, St. Louis, MO 63178) and [g33P] ATP (specific activity 10 microCi/microliter) purchased at PerkinElmer (Boston, MA, 02118 Cat #BLU 003H250UC) were added at a final total concentration of 100 microM to each well with no preincubation. Reactions were carried out at room temperature for 2 hr and spotted onto P81 ion exchange cellulose chromatography paper (Reaction Biology). Filter paper was washed in 0.75% phosphoric acid to remove unincorporated ATP. The percent remaining kinase activity relative to a vehicle-containing (DMSO) kinase reaction was calculated for each kinase/inhibitor pair. IC50 values were calculated using Dotmatics Knowledge Solutions Studies curve fitting (Dotmatics, Bishops Stortford, UK, CM23).

Chain of FGFR2 (P21802 22-821): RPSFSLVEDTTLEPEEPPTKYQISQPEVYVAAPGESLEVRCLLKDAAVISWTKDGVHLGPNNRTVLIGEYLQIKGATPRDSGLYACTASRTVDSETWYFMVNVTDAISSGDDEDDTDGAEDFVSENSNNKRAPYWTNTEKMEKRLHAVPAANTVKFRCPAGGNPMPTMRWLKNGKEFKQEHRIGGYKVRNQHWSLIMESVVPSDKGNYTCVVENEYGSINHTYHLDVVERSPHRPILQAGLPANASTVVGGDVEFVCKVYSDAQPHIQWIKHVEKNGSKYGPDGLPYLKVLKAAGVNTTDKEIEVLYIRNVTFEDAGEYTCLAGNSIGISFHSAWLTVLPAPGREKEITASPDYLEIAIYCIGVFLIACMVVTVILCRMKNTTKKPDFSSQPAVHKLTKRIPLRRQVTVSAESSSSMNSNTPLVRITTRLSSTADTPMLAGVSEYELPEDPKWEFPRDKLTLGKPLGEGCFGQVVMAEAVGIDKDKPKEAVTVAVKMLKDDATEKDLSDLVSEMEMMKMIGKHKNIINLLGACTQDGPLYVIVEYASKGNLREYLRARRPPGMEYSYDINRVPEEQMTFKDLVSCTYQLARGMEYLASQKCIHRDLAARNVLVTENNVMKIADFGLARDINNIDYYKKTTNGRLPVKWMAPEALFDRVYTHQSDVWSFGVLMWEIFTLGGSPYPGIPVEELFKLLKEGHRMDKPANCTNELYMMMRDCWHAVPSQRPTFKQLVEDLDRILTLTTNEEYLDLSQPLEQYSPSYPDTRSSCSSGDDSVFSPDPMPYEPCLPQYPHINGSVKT

Row | Structure (SMILES) | IC50
1 | C=CC(=O)N1C[C@@H](n2cc(C#Cc3cc4ncn(C)c4cc3F)c3c(N)ncnc32)C[C@@H]1COC(F)(F)F [Example 67, 1-((2R,4S)-4-(4-Amino-5-((6-fluoro-1-methyl-1H-benzo[d]imidazol-5-yl)ethynyl)-7H-pyrrolo[2,3-d]pyrimidin-7-yl)-2-((trifluoromethoxy)methyl)pyrrolidin-1-yl)prop-2-en-1-one] | ≤ 100 nM
2 | C=CC(=O)N1CC[C@H](n2nc(C#Cc3cc4ncn(CC)c4cc3Cl)c3c(N)nccc32)C1 [Example 133, (S)-1-(3-(4-Amino-3-((6-chloro-1-ethyl-1H-benzo[d]imidazol-5-yl)ethynyl)-1H-pyrazolo[4,3-c]pyridin-1-yl)pyrrolidin-1-yl)prop-2-en-1-one] | ≤ 100 nM
3 | C=CC(=O)N1C[C@@H](n2nc(C#Cc3cc4ncn(CC)c4c(F)c3F)c3c(N)nccc32)C[C@@H]1CC#N [Example 160, 2-[(2R,4S)-4-{4-Amino-3-[2-(1-ethyl-6,7-difluoro-1,3-benzodiazol-5-yl)ethynyl]pyrazolo[4,3-c]pyridin-1-yl}-1-(prop-2-enoyl)pyrrolidin-2-yl]acetonitrile] | ≤ 100 nM
4 | C=CC(=O)N1C[C@@H](n2nc(C#Cc3cc4ncn(C(F)F)c4cc3F)c3c(N)nccc32)C[C@@H]1COC [Example 83, 1-[(2R,4S)-4-(4-Amino-3-[2-[1-(difluoromethyl)-6-fluoro-1,3-benzodiazol-5-yl]ethynyl]pyrazolo[4,3-c]pyridin-1-yl)-2-(methoxymethyl)pyrrolidin-1-yl]prop-2-en-1-one] | ≤ 100 nM
5 | C=CC(=O)N1CC[C@H](n2nc(C#Cc3cc4ncn(C5CC5)c4cc3Cl)c3c(N)ncnc32)C1 [Example 191, 1-[(3S)-3-{4-Amino-3-[2-(6-chloro-1-cyclopropyl-1,3-benzodiazol-5-yl)ethynyl]pyrazolo[3,4-d]pyrimidin-1-yl}pyrrolidin-1-yl]prop-2-en-1-one] | ≤ 100 nM
6 | C=CC(=O)N1C[C@@H](n2nc(C#Cc3cc4ncn(CC)c4cc3F)c3c(N)nccc32)C[C@@H]1C(F)F [Example 171, 1-((2R,4S)-4-(4-amino-3-((1-ethyl-6-fluoro-1H-benzo[d]imidazol-5-yl)ethynyl)-1H-pyrazolo[4,3-c]pyridin-1-yl)-2-(difluoromethyl)pyrrolidin-1-yl)prop-2-en-1-one] | ≤ 100 nM
7 | C=CC(=O)N1C[C@@H](n2nc(C#Cc3ccc4nn(CC)cc4c3)c3c(N)ncnc32)C[C@@H]1COC [Example 42, 1-[(2R,4S)-4-[4-amino-3-[2-(2-ethylindazol-5-yl)ethynyl]pyrazolo[3,4-d]pyrimidin-1-yl]-2-(methoxymethyl)pyrrolidin-1-yl]prop-2-en-1-one] | 100 to 1000 nM
8 | C=CC(=O)N1C[C@@H](n2nc(C#Cc3c(Cl)cc4c(nc(C)n4C)c3F)c3c(N)nccc32)C[C@@H]1COC [Example 103, 1-((2R,4S)-4-(4-Amino-3-((6-chloro-4-fluoro-1,2-dimethyl-1H-benzo[d]imidazol-5-yl)ethynyl)-1H-pyrazolo[4,3-c]pyridin-1-yl)-2-(methoxymethyl)pyrrolidin-1-yl)prop-2-en-1-one] | ≤ 100 nM
9 | C=CC(=O)N1C[C@@H](n2nc(C#Cc3c(F)cc4c(ncn4C4CC4)c3F)c3c(N)nccc32)C[C@@H]1COC [Example 73, 1-[(2R,4S)-4-[4-Amino-3-[2-(1-cyclopropyl-4,6-difluoro-1,3-benzodiazol-5-yl)ethynyl]pyrazolo[4,3-c]pyridin-1-yl]-2-(methoxymethyl)pyrrolidin-1-yl]prop-2-en-1-one; formic acid] | ≤ 100 nM
10 | C=CC(=O)N1C[C@@H](n2nc(C#Cc3cc4nc(C)n(C)c4cc3Cl)c3c(N)ncnc32)C[C@@H]1COC [Example 96, 1-[(2R,4S)-4-[4-Amino-3-[2-(6-chloro-1,2-dimethyl-1,3-benzodiazol-5-yl)ethynyl]pyrazolo[3,4-d]pyrimidin-1-yl]-2-(methoxymethyl)pyrrolidin-1-yl]prop-2-en-1-one] | ≤ 100 nM
11 | C=CC(=O)N1C[C@@H](n2nc(C#Cc3cc4ncn(C(F)F)c4cc3F)c3c(N)ncnc32)C[C@@H]1COC [Example 82, 1-[(2R,4S)-4-(4-Amino-3-[2-[1-(difluoromethyl)-6-fluoro-1,3-benzodiazol-5-yl]ethynyl]pyrazolo[3,4-d]pyrimidin-1-yl)-2-(methoxymethyl)pyrrolidin-1-yl]prop-2-en-1-one] | ≤ 100 nM

Now from value to compound:

Row | IC50 | Structure (SMILES)
12 | ≤ 100 nM | C=CC(=O)N1C[C@@H](n2nc(C#Cc3cc4ncn(C5CC5)c4cc3F)c3c(N)nccc32)C[C@@H]1COC [Example 109, 1-[(2R,4S)-4-[4-Amino-3-[2-(1-cyclopropyl-6-fluoro-1,3-benzodiazol-5-yl)ethynyl]pyrazolo[4,3-c]pyridin-1-yl]-2-(methoxymethyl)pyrrolidin-1-yl]prop-2-en-1-one]
13 | ≤ 100 nM | C=CC(=O)N1C[C@@H](n2nc(C#Cc3cc4nc(C)[nH]c4cc3Cl)c3c(N)ncnc32)C[C@@H]1COC [Example 99, 1-[(2R,4S)-4-[4-Amino-3-[2-(6-chloro-2-methyl-1H-1,3-benzodiazol-5-yl)ethynyl]pyrazolo[3,4-d]pyrimidin-1-yl]-2-(methoxymethyl)pyrrolidin-1-yl]prop-2-en-1-one]
14 | ≤ 100 nM | C=CC(=O)N1C[C@@H](n2nc(C#Cc3cc4ncn(C5CC5)c4cc3F)c3c(N)ncnc32)C[C@@H]1COC(F)(F)F [Example 78, 1-((2R,4S)-4-(4-Amino-3-((1-cyclopropyl-6-fluoro-1H-benzo[d]imidazol-5-yl)ethynyl)-1H-pyrazolo[3,4-d]pyrimidin-1-yl)-2-((trifluoromethoxy)methyl)pyrrolidin-1-yl)prop-2-en-1-one]
15 | ≤ 100 nM | C=CC(=O)N1C[C@@H](n2nc(C#Cc3cc4ncn(C)c4cc3F)c3c(N)nccc32)C[C@@H]1C(F)F [Example 181, 1-((2R,4S)-4-(4-amino-3-((6-fluoro-1-methyl-1H-benzo[d]imidazol-5-yl)ethynyl)-1H-pyrazolo[4,3-c]pyridin-1-yl)-2-(difluoromethyl)pyrrolidin-1-yl)prop-2-en-1-one]
16 | ≤ 100 nM | C=CC(=O)N1C[C@@H](n2nc(C#Cc3c(F)cc4c(ncn4C(F)F)c3F)c3c(N)ncnc32)C[C@@H]1COC [Example 64, 1-[(2R,4S)-4-(4-Amino-3-[2-[1-(difluoromethyl)-4,6-difluoro-1,3-benzodiazol-5-yl]ethynyl]pyrazolo[3,4-d]pyrimidin-1-yl)-2-(methoxymethyl)pyrrolidin-1-yl]prop-2-en-1-one]
17 | ≤ 100 nM | C=CC(=O)N1C[C@@H](n2nc(C#Cc3cc4ncn(C)c4cc3Cl)c3c(N)ncnc32)C[C@@H]1C(F)F [Example 179, 1-((2R,4S)-4-(4-amino-3-((6-chloro-1-methyl-1H-benzo[d]imidazol-5-yl)ethynyl)-1H-pyrazolo[3,4-d]pyrimidin-1-yl)-2-(difluoromethyl)pyrrolidin-1-yl)prop-2-en-1-one]
18 | ≤ 100 nM | C=CC(=O)N1CC[C@H](n2nc(C#Cc3c(F)cc4c(ncn4C4CC4)c3F)c3c(N)ncnc32)C1 [Example 195, 1-[(3S)-3-{4-Amino-3-[2-(1-cyclopropyl-4,6-difluoro-1,3-benzodiazol-5-yl)ethynyl]pyrazolo[3,4-d]pyrimidin-1-yl}pyrrolidin-1-yl]prop-2-en-1-one]
